This is an account of results in article PMC3130079 (2011).

This experiment has as its target TRPA1 (Mus musculus, UniProt Q8BLA8). The experiment in a line: Ca2+ imaging and whole-cell patch clamp in TRPA1-transfected CHO cells. The experiment is classed as cell-based. Background: The patch-clamp technique gives a direct electrical read-out from membranes.

pEC50: −log10 of the molar value.

Sequence of TRPA1 (Q8BLA8 whole entry): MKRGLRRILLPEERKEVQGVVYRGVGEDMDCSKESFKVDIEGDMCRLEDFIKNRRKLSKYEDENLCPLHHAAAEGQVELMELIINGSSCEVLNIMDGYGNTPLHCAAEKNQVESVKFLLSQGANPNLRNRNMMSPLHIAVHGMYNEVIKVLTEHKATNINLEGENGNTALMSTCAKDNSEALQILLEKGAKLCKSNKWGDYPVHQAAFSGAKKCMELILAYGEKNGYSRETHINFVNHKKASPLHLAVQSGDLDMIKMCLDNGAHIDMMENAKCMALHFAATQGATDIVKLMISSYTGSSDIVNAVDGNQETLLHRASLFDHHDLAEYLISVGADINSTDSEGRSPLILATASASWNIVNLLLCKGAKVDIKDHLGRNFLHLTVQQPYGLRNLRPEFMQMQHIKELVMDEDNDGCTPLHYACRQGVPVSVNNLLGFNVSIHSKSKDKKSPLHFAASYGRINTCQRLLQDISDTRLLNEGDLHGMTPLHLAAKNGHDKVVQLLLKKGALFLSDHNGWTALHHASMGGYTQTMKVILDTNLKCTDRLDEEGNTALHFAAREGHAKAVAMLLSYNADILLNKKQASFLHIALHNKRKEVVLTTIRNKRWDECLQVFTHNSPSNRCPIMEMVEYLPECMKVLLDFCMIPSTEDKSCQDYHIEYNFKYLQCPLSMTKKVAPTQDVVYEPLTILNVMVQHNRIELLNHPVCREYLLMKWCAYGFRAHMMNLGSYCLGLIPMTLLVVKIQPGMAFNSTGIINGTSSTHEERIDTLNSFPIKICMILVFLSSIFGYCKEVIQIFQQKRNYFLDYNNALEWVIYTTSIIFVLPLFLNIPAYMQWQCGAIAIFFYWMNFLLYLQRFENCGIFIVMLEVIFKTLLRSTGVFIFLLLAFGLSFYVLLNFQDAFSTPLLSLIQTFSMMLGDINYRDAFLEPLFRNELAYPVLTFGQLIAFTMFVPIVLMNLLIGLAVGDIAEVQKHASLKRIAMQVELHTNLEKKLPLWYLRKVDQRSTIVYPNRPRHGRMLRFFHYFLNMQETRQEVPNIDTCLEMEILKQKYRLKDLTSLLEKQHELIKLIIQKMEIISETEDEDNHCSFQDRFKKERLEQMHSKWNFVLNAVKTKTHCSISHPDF

`COc1ccc(C(=O)c2c(C)n(CCN3CCOCC3)c3cc(I)ccc23)cc1` [AM630] showed a pEC50 of 5.70.

The pEC50 is the negative decadic logarithm of the EC50, by convention in mol/L.
